These compounds were tested against T1, dihydrolipoamide acyltransferase (DlaT) (Mycobacterium tuberculosis, UniProt P9WIS7) (assay: DlaT inhibition (Dlat IC50); DTNB peroxidase assay with Lpd, DlaT and AhpD). Conditions: Table 1, Compounds A1 to A294; read-out: Dlat IC50 category.
T1 sequence (P9WIS7 1-553): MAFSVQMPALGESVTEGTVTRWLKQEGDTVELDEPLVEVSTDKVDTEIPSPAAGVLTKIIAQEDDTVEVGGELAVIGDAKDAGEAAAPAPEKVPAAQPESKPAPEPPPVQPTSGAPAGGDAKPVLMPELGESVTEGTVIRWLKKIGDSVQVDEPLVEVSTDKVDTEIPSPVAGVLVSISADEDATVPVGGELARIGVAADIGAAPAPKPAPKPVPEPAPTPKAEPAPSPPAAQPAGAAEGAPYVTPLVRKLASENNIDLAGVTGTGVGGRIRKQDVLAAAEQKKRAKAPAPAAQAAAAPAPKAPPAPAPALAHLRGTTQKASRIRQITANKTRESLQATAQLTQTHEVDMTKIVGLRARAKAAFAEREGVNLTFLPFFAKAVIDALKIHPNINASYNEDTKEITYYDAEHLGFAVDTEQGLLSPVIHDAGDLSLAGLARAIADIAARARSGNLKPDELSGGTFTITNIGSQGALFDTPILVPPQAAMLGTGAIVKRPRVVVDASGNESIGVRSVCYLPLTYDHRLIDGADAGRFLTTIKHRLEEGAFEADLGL
Assay type: biochemical

SMILES | IC50 [µM]
CC(C)Cc1ccc(-c2ccc(C=C3SC(=S)N(c4ccc(O)c(C(=O)O)c4)C3=O)o2)cc1 [Compound A65] | < 10
O=C(O)c1cc(N2C(=O)C(=Cc3ccc(-c4ccccc4Cl)o3)SC2=S)ccc1Cl [Compound A66] | < 10
O=C(O)c1cc(N2C(=O)C(=Cc3ccc(-c4cccc(C(F)(F)F)c4)o3)SC2=S)ccc1Cl [Compound A67] | < 10
O=C(O)c1cc(N2C(=O)C(=Cc3ccc(-c4ccc(Cl)cc4)o3)SC2=S)ccc1Cl [Compound A68] | < 10
O=C(O)c1cc(N2C(=O)C(=Cc3ccc(-c4ccccc4OC(F)(F)F)o3)SC2=S)ccc1Cl [Compound A69] | < 10
O=C(O)c1cccc(N2C(=O)C(=Cc3ccc(-c4ccccc4OC(F)(F)F)o3)SC2=S)c1 [Compound A70] | < 10
O=C(O)c1ccc(Cl)c(N2C(=O)C(=Cc3ccc(-c4ccccc4Cl)o3)SC2=S)c1 [Compound A71] | < 10
O=C(O)c1ccc(Cl)c(N2C(=O)C(=Cc3ccc(-c4ccc(Cl)cc4)o3)SC2=S)c1 [Compound A72] | < 10
O=C(O)c1ccc(Cl)c(N2C(=O)C(=Cc3ccc(-c4cccc(C(F)(F)F)c4)o3)SC2=S)c1 [Compound A73] | < 10
COc1ccc(C(=O)O)cc1N1C(=O)C(=Cc2ccc(-c3ccccc3Cl)o2)SC1=S [Compound A74] | < 10
NC(=O)c1cccc(N2C(=O)C(=Cc3ccc(-c4ccccc4Cl)o3)SC2=S)c1 [Compound A75] | 11 to 40
NC(=O)c1cccc(N2C(=O)C(=Cc3ccc(-c4cccc(C(F)(F)F)c4)o3)SC2=S)c1 [Compound A76] | 11 to 40
NC(=O)c1cccc(N2C(=O)C(=Cc3ccc(-c4ccc(Cl)cc4)o3)SC2=S)c1 [Compound A77] | 11 to 40
Cc1ccc(C(=O)O)cc1N1C(=O)C(=Cc2ccc(-c3ccccc3Cl)o2)SC1=S [Compound A78] | < 10
Cc1c(C(=O)O)cccc1N1C(=O)C(=Cc2ccc(-c3ccccc3Cl)o2)SC1=S [Compound A79] | < 10
Cc1ccc(C(=O)O)cc1N1C(=O)C(=Cc2ccc(-c3ccc(C(C)(C)C)cc3)o2)SC1=S [Compound A80] | < 10
Cc1c(C(=O)O)cccc1N1C(=O)C(=Cc2ccc(-c3ccc(C(C)(C)C)cc3)o2)SC1=S [Compound A81] | < 10
Cc1ccc(C(=O)O)cc1N1C(=O)C(=Cc2ccc(-c3ccc(C4CCCCC4)cc3)o2)SC1=S [Compound A82] | < 10
Cc1c(C(=O)O)cccc1N1C(=O)C(=Cc2ccc(-c3ccc(C4CCCCC4)cc3)o2)SC1=S [Compound A83] | < 10
O=C(O)c1cccc(N2C(=O)C(=Cc3ccc(-c4ccc(Cc5ccc(Cl)cc5)cc4)o3)SC2=S)c1 [Compound A84] | < 10
COc1ccc(C(=O)O)cc1N1C(=O)C(=Cc2ccc(-c3cccc(C(F)(F)F)c3)o2)SC1=S [Compound A86] | < 10
COc1ccc(C(=O)O)cc1N1C(=O)C(=Cc2ccc(-c3ccc(Cl)cc3)o2)SC1=S [Compound A87] | < 10
O=C(O)c1cc(N2C(=O)C(=Cc3ccc(-c4ccccc4Cl)o3)SC2=S)cc([N+](=O)[O-])c1 [Compound A88] | < 10
O=C(O)c1cc(N2C(=O)C(=Cc3ccc(-c4cccc(C(F)(F)F)c4)o3)SC2=S)cc([N+](=O)[O-])c1 [Compound A89] | 11 to 40
O=C(O)c1cc(N2C(=O)C(=Cc3ccc(-c4ccc(Cl)cc4)o3)SC2=S)cc([N+](=O)[O-])c1 [Compound A90] | < 10
COc1ccc(C(=O)O)cc1N1C(=O)C(=Cc2ccc(-c3ccc(CC(C)C)cc3)o2)SC1=S [Compound A91] | < 10
CC(C)Cc1ccc(-c2ccc(C=C3SC(=S)N(c4cc(C(=O)O)ccc4Cl)C3=O)o2)cc1 [Compound A92] | < 10
COc1ccc(C(=O)O)cc1N1C(=O)C(=Cc2ccc(-c3cccc(C(C)C)c3)o2)SC1=S [Compound A93] | < 10
O=C(O)c1cccc(N2C(=O)C(=Cc3ccc(-c4ccc(C5CCCC5)cc4)o3)SC2=S)c1 [Compound A94] | < 10
